According to ChEMBL document CHEMBL1201862, “PubChem BioAssay data set” (2004):
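Following 48 hours of exposure in 96-well plates, responses at five concentrations were used to interpolate endpoints linearly. Abbreviation: GI50, concentration required for 50% inhibition of growth.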 Active and inactive are the calls of the source. No stated cut-off is given here; in the data, active = GI50 up to about 1.1 µM and inactive = higher.

Legend:
Test in all cases: inhibition of tumour cell growth, NCI panel, 48 h
MDA-N = test system: MDA-N
HCC 2998 = test system: HCC 2998
Malme-3M = test system: Malme-3M
HT-29 = test system: HT-29
Hs-578T = test system: Hs-578T
COLO 205 = test system: COLO 205
OVCAR-3 = test system: OVCAR-3
MDA-MB-435 = test system: MDA-MB-435
NCI/ADR-RES = test system: NCI/ADR-RES
DU-145 = test system: DU-145
RXF 393 = test system: RXF 393
PC-3 = test system: PC-3
EKVX = test system: EKVX
SK-MEL-5 = test system: SK-MEL-5
KM12 = test system: KM12
SF-268 = test system: SF-268
U-251 = test system: U-251
CCRF-CEM = test system: CCRF-CEM
IGROV-1 = test system: IGROV-1
HOP-92 = test system: HOP-92

Compound	GI50 (MDA-N)	GI50 (HCC 2998)	GI50 (Malme-3M)	GI50 (HT-29)	GI50 (Hs-578T)	GI50 (COLO 205)	GI50 (OVCAR-3)	GI50 (MDA-MB-435)	GI50 (NCI/ADR-RES)	GI50 (DU-145)	GI50 (RXF 393)	GI50 (PC-3)	GI50 (EKVX)	GI50 (SK-MEL-5)	GI50 (KM12)	GI50 (SF-268)	GI50 (U-251)	GI50 (CCRF-CEM)	GI50 (IGROV-1)	GI50 (HOP-92)
CCC1=NC(C(F)(F)F)(C(F)(F)F)N=C(/N=C(/N)N(C)C(C(C)C)P(=O)(OC(C)C)OC(C)C)O1 (configuration not stated)	> 100 µM (inactive)	> 100 µM (inactive)	> 100 µM (inactive)	> 100 µM (inactive)	> 100 µM (inactive)	> 100 µM (inactive)	> 100 µM (inactive)	> 100 µM (inactive)	> 100 µM (inactive)	> 100 µM (inactive)	> 100 µM (inactive)	> 100 µM (inactive)	> 100 µM (inactive)	> 100 µM (inactive)	> 100 µM (inactive)	> 100 µM (inactive)	> 100 µM (inactive)	> 100 µM (inactive)	> 100 µM (inactive)	–
Cc1c(-c2ccccc2)c(C#N)c2nnc(C(N)=O)c(N)n12	> 100 µM (inactive)	> 100 µM (inactive)	> 100 µM (inactive)	> 100 µM (inactive)	> 100 µM (inactive)	> 100 µM (inactive)	> 100 µM (inactive)	> 100 µM (inactive)	> 100 µM (inactive)	> 100 µM (inactive)	> 100 µM (inactive)	> 100 µM (inactive)	> 100 µM (inactive)	> 100 µM (inactive)	> 100 µM (inactive)	> 100 µM (inactive)	> 100 µM (inactive)	> 100 µM (inactive)	> 100 µM (inactive)	–
CSC1=C(SC)SC(=C2SC3=C(SC(=C4SCCS4)S3)S2)S1	> 100 µM (inactive)	> 100 µM (inactive)	> 100 µM (inactive)	> 100 µM (inactive)	> 100 µM (inactive)	> 100 µM (inactive)	> 100 µM (inactive)	> 100 µM (inactive)	> 100 µM (inactive)	> 100 µM (inactive)	–	> 100 µM (inactive)	> 100 µM (inactive)	> 100 µM (inactive)	> 100 µM (inactive)	> 100 µM (inactive)	> 100 µM (inactive)	> 100 µM (inactive)	> 100 µM (inactive)	> 100 µM (inactive)
CC1(C)OC(=O)C2(O1)C(=O)C1CCCCC12 (configuration not stated)	30.9 µM (inactive)	> 100 µM (inactive)	67.9 µM (inactive)	> 100 µM (inactive)	32.4 µM (inactive)	20.1 µM (inactive)	> 100 µM (inactive)	> 100 µM (inactive)	> 100 µM (inactive)	> 100 µM (inactive)	4.89 µM (inactive)	> 100 µM (inactive)	21 µM (inactive)	> 100 µM (inactive)	> 100 µM (inactive)	> 100 µM (inactive)	97.1 µM (inactive)	8.97 µM (inactive)	> 100 µM (inactive)	–
CCC1=CCC23C(=O)C=CC(=O)C2(C1)C(=O)c1cccc(OC)c1C3=O (configuration not stated)	16.5 µM (inactive)	–	15.9 µM (inactive)	20.3 µM (inactive)	20.2 µM (inactive)	14.9 µM (inactive)	10.1 µM (inactive)	17.1 µM (inactive)	20.2 µM (inactive)	16.9 µM (inactive)	6.38 µM (inactive)	14.9 µM (inactive)	13.2 µM (inactive)	16.8 µM (inactive)	20.9 µM (inactive)	17.6 µM (inactive)	23 µM (inactive)	3.26 µM (inactive)	13 µM (inactive)	15.1 µM (inactive)
CC(=O)N1C(C(=O)NN2CCOCC2)CSC1c1ccccc1 (configuration not stated)	> 100 µM (inactive)	> 100 µM (inactive)	> 100 µM (inactive)	> 100 µM (inactive)	> 100 µM (inactive)	> 100 µM (inactive)	> 100 µM (inactive)	> 100 µM (inactive)	> 100 µM (inactive)	> 100 µM (inactive)	–	> 100 µM (inactive)	> 100 µM (inactive)	> 100 µM (inactive)	> 100 µM (inactive)	> 100 µM (inactive)	> 100 µM (inactive)	> 100 µM (inactive)	> 100 µM (inactive)	> 100 µM (inactive)
O=C1/C(=C/c2ccc(Br)s2)NC(=S)N1CN1CCCCC1	33.9 µM (inactive)	31 µM (inactive)	58.7 µM (inactive)	33.2 µM (inactive)	51.4 µM (inactive)	18.1 µM (inactive)	22.4 µM (inactive)	30 µM (inactive)	28.8 µM (inactive)	38.1 µM (inactive)	21.1 µM (inactive)	28.2 µM (inactive)	9.35 µM (inactive)	0.317 µM (active)	35.6 µM (inactive)	39.4 µM (inactive)	28.8 µM (inactive)	–	42.1 µM (inactive)	–
CCC(CC)(CO)CNc1cc(Cl)nc(N)n1	89.5 µM (inactive)	–	> 100 µM (inactive)	> 100 µM (inactive)	> 100 µM (inactive)	> 100 µM (inactive)	> 100 µM (inactive)	> 100 µM (inactive)	> 100 µM (inactive)	> 100 µM (inactive)	67.1 µM (inactive)	> 100 µM (inactive)	79.3 µM (inactive)	60.7 µM (inactive)	> 100 µM (inactive)	55.6 µM (inactive)	> 100 µM (inactive)	> 100 µM (inactive)	> 100 µM (inactive)	11.3 µM (inactive)
Nc1n[n+](CC(=O)c2ccccc2)c2sc(-c3ccccc3)nn12	84.7 µM (inactive)	–	> 100 µM (inactive)	55 µM (inactive)	> 100 µM (inactive)	> 100 µM (inactive)	> 100 µM (inactive)	27.7 µM (inactive)	> 100 µM (inactive)	> 100 µM (inactive)	> 100 µM (inactive)	73.8 µM (inactive)	> 100 µM (inactive)	48.6 µM (inactive)	46.1 µM (inactive)	18.8 µM (inactive)	> 100 µM (inactive)	45.7 µM (inactive)	> 100 µM (inactive)	–
CN(C)CCCN1c2ccccc2C(C)(C)c2ccccc21 [DIMETACRINE]	14.2 µM (inactive)	–	14.7 µM (inactive)	11.8 µM (inactive)	15.1 µM (inactive)	14.6 µM (inactive)	14 µM (inactive)	13.2 µM (inactive)	17.1 µM (inactive)	15.9 µM (inactive)	12.9 µM (inactive)	13.7 µM (inactive)	17.6 µM (inactive)	13.4 µM (inactive)	14.1 µM (inactive)	13.3 µM (inactive)	12.4 µM (inactive)	22.4 µM (inactive)	17.9 µM (inactive)	14.6 µM (inactive)
NCC1OC(n2cnc3c(N)ncnc32)CC1O (configuration not stated)	> 100 µM (inactive)	–	> 100 µM (inactive)	> 100 µM (inactive)	> 100 µM (inactive)	> 100 µM (inactive)	> 100 µM (inactive)	> 100 µM (inactive)	> 100 µM (inactive)	> 100 µM (inactive)	> 100 µM (inactive)	> 100 µM (inactive)	> 100 µM (inactive)	> 100 µM (inactive)	> 100 µM (inactive)	> 100 µM (inactive)	> 100 µM (inactive)	> 100 µM (inactive)	> 100 µM (inactive)	> 100 µM (inactive)
